Active and inactive are the calls of the source.
Assays:
[1] = target: T1, Sentrin-specific protease 8 (Homo sapiens, UniProt Q96LD8); format: functional;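 note: luminescence read-out of SENP8 inhibition, dose-response confirmation following an ultra-high-throughput screen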
T1 sequence (Q96LD8 whole entry): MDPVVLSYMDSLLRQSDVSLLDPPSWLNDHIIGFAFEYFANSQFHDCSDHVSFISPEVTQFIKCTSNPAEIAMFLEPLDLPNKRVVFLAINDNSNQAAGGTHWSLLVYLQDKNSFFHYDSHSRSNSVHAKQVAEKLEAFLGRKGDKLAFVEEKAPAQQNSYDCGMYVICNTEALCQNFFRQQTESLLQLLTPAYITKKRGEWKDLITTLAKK

[2] = target: T2, Sentrin-specific protease 6 (Homo sapiens, UniProt Q9GZR1); format: functional;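 note: Luminescence-based dose-response confirmatory assay of SENP6 inhibition, following up an ultra-high-throughput screen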
T2 sequence (Q9GZR1 whole entry): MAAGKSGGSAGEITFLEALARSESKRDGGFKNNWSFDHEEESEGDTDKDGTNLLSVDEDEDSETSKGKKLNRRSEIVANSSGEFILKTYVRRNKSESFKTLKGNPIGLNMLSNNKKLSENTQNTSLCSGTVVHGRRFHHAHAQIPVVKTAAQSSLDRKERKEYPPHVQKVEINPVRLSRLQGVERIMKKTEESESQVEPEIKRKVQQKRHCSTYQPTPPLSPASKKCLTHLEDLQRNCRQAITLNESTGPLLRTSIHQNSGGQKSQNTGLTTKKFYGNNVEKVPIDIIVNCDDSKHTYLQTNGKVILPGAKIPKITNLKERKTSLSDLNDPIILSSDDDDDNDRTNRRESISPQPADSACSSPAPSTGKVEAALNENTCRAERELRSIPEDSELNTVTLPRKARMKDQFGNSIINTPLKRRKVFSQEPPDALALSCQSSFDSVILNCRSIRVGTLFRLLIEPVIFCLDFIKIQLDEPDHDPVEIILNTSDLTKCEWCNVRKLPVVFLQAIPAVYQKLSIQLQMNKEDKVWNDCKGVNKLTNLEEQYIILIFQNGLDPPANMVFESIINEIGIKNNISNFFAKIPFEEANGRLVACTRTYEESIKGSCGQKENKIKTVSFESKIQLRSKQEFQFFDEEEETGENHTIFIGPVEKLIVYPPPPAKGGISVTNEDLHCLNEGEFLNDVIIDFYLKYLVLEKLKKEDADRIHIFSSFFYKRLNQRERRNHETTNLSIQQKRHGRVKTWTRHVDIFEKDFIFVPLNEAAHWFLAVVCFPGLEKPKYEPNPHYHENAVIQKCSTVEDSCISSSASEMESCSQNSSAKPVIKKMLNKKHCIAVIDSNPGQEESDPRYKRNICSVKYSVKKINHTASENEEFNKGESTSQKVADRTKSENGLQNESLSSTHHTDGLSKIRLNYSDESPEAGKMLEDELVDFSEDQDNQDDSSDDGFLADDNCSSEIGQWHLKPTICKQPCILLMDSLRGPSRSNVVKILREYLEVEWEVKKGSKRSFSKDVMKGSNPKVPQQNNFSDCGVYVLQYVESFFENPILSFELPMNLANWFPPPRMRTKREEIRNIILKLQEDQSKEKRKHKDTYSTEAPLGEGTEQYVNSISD

Caspase-3 = target: T3, Caspase-3 (Homo sapiens, UniProt P42574); format: functional;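 note: Dose-response selectivity test against caspase-3 for candidate inhibitors of sentrin-specific proteases (SENPs)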
T3 sequence (P42574 whole entry): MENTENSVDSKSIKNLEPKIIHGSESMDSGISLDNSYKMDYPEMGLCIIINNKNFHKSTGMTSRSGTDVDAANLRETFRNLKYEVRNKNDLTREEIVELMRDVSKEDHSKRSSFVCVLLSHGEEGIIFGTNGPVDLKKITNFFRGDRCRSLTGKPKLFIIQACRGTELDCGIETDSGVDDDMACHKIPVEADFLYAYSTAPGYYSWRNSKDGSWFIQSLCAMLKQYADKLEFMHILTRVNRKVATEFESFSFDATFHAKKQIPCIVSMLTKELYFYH

[3] = target: T4, Sentrin-specific protease 7 (Homo sapiens, UniProt Q9BQF6); format: functional;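 note: Luminescence-based dose-response confirmation of ultra-high-throughput screening hits, measuring inhibition of SENP7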
T4 sequence (Q9BQF6 whole entry): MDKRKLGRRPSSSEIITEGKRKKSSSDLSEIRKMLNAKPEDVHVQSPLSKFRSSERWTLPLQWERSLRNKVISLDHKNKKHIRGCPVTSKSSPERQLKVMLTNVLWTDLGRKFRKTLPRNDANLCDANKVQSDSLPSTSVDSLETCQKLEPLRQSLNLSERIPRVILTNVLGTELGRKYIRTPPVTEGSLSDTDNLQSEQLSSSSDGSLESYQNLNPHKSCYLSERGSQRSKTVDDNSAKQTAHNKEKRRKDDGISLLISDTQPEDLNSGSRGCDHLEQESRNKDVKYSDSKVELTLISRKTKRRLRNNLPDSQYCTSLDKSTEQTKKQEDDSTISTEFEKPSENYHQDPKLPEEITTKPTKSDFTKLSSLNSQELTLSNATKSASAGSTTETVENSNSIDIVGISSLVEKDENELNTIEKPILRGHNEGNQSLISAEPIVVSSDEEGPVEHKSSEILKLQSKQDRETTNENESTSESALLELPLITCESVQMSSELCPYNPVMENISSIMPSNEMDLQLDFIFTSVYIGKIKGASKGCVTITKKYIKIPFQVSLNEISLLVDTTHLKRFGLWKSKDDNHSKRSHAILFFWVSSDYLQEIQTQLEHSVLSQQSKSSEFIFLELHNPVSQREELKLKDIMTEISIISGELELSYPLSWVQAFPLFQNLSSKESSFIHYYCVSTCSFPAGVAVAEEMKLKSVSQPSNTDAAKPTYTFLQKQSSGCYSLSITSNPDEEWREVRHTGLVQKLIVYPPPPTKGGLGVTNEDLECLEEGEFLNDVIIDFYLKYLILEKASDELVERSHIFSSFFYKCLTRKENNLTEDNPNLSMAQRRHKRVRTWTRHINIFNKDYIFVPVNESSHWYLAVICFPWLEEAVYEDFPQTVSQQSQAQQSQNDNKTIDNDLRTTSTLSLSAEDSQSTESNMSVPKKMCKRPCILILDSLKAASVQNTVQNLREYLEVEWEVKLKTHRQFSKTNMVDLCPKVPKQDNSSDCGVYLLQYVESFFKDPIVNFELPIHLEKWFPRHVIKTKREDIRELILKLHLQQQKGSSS

Escherichia coli = assay: microbe, parasite or virus in culture
Troponin, cardiac muscle = Troponin, cardiac muscle (Homo sapiens, UniProt P19429+P45379+P63316); assay: Fluorescence-based biochemical high throughput dose response assay for activators of the calcium sensitivity of cardiac Regulated Thin Filaments (RTF). [Related pubchem assays (depositor defined):AID493008, AID493018, AID504382, AID504383]; format: protein-complex assay
[4] = target: DNA dC->dU-editing enzyme APOBEC-3G (Homo sapiens, UniProt Q9HC16); format: functional;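 note: Dose-response counterscreen measuring inhibition of APOBEC3G DNA deaminase activity, run while confirming APOBEC3A inhibitors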
[5] = target: DNA dC->dU-editing enzyme APOBEC-3A (Homo sapiens, UniProt P31941); assay: Dose Response confirmation of small molecule APOBEC3A DNA Deaminase Inhibitors via a fluorescence-based single-stranded DNA deaminase assay. [Related pubchem assays (depositor defined):AID493011, AID493024]; format: functional
[6] = target: T5, Histone-lysine N-methyltransferase NSD2 (Homo sapiens, UniProt O96028); format: biochemical
T5 sequence (O96028 whole entry): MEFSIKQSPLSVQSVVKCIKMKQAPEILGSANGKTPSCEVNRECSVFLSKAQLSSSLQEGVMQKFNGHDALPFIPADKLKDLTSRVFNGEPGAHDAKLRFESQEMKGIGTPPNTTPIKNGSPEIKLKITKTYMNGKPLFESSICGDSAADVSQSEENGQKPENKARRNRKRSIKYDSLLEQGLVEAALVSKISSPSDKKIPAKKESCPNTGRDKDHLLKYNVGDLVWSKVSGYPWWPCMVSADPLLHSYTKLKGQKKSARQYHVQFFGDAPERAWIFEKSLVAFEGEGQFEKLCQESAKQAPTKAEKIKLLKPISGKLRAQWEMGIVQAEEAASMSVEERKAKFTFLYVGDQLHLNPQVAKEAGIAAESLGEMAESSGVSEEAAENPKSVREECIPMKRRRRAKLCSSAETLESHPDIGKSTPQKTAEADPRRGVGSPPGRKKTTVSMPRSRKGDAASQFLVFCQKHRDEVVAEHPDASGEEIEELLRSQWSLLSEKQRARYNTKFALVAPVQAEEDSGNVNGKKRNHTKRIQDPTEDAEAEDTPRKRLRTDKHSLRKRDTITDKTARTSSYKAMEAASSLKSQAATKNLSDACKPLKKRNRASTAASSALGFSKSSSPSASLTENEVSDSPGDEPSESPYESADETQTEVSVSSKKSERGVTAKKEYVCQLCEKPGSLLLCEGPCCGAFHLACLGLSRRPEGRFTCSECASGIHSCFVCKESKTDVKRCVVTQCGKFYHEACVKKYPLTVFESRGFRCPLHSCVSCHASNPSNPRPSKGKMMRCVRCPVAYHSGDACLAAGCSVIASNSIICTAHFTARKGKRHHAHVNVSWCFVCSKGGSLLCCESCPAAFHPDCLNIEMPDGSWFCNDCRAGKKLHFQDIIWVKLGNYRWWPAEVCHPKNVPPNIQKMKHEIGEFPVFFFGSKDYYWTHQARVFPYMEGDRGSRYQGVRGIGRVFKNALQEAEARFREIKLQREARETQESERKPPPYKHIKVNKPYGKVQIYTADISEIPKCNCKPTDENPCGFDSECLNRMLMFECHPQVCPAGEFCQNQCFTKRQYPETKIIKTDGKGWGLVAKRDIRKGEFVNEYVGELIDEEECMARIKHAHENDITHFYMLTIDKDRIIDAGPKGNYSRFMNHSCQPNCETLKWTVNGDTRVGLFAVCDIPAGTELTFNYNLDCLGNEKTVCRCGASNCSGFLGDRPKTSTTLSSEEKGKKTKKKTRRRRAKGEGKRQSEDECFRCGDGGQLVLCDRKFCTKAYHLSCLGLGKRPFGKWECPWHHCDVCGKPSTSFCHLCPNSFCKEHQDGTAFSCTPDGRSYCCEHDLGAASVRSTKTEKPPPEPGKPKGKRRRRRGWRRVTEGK

[7] = Luminescence Cell-Based Dose Response HTS to Identify Inhibitors of 5'UTR Stem-Loop Driven Prion Protein mRNA Translation in H4 Neuroglioblastoma Cells. [Related pubchem assays: 1827 (Project Summary), 1813 (Primary HTS)]; format: functional
cells [8] = format: functional, cell-based
cells [9] = format: functional, cell-based; remark: listed apart in the source
[10] = target: Eukaryotic translation initiation factor 4E (Mus musculus, UniProt P63073); assay: eIF4E–eIF4G protein interaction inhibitors, dose response, biochemical, TR-FRET (AID 855); format: functional;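 note: potency for disrupting eIF4E binding to eIF4GI seen as loss of FRET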
Cytochrome P450 2D6 = Cytochrome P450 2D6 (Homo sapiens, UniProt P10635);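 note: CYP2D6 member of a cytochrome P450 panel assay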
Cytochrome P450 2C9 = Cytochrome P450 2C9 (Homo sapiens, UniProt P11712)
[11] = target: T6, Carboxy-terminal domain RNA polymerase II polypeptide A small phosphatase 1 (Homo sapiens, UniProt Q9GZU7); assay: inhibitors of CTDSP1, concentration-response testing, biochemical assay, absorbance-based, actives from ultra-high-throughput screening (AID 540297); format: functional
T6 sequence (Q9GZU7 whole entry): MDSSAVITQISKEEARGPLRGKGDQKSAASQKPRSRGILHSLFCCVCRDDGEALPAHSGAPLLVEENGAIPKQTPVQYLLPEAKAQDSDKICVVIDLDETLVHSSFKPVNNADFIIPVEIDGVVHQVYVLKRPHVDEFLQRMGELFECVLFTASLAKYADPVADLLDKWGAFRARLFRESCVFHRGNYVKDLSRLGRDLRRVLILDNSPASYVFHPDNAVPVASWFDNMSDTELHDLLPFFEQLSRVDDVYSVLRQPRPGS

Chain of DNA dC->dU-editing enzyme APOBEC-3A (P31941 whole entry): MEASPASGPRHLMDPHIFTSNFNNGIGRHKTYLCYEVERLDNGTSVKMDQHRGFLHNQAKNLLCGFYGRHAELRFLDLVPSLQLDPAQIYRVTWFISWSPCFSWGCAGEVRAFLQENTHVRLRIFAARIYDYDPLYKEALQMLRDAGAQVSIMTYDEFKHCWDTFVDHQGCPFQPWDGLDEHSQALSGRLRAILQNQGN
Chain of DNA dC->dU-editing enzyme APOBEC-3G (Q9HC16 whole entry): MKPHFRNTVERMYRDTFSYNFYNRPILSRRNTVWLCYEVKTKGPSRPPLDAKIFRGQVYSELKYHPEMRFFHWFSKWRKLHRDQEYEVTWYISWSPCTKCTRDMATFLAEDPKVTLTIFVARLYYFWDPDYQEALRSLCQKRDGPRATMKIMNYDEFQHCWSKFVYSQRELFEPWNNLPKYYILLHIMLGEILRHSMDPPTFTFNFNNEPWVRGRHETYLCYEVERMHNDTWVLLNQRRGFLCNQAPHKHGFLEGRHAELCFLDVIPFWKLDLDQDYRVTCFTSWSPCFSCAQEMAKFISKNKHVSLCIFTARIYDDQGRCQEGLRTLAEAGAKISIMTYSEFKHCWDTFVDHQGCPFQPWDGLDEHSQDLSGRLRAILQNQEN
Chain of Eukaryotic translation initiation factor 4E (P63073 whole entry): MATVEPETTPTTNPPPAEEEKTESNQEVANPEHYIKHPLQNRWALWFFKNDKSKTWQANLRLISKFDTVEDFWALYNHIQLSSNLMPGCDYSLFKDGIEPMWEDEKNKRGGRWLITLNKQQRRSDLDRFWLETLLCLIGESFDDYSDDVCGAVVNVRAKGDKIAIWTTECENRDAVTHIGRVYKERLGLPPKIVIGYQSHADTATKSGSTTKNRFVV
Chain of Cytochrome P450 2C9 (P11712 whole entry, the tested form may be a part): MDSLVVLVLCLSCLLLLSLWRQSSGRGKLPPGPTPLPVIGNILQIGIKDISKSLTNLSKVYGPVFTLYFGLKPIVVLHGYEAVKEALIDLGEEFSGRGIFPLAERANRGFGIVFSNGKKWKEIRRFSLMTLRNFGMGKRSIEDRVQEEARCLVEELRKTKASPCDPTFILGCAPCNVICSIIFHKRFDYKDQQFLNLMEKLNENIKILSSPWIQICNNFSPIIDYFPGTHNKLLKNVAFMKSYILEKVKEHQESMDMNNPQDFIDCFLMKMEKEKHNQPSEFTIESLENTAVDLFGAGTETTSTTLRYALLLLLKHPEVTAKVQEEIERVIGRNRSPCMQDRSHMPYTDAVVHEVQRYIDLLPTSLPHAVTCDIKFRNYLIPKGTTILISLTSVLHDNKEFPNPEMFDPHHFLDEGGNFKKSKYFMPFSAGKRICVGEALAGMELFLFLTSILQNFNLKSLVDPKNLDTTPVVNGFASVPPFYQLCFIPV
Chain of Cytochrome P450 2D6 (P10635 whole entry): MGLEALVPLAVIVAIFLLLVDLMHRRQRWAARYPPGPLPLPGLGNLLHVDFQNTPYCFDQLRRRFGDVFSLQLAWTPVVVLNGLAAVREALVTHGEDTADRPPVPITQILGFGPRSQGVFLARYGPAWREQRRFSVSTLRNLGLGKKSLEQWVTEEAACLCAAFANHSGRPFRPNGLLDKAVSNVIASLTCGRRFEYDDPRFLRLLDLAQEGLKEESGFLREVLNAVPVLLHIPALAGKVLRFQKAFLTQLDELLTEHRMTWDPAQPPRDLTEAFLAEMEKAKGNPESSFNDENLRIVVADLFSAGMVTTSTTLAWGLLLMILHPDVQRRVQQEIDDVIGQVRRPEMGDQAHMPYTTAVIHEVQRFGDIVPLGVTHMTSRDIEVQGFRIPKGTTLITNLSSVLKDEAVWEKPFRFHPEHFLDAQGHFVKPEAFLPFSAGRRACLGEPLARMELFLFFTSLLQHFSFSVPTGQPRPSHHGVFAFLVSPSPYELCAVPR

CCOC(=O)c1ccc(NC(=O)/C=C/c2cccs2)cc1
IC50 [1]: 14.5 µM (active) | IC50 [2]: 15 µM (active) | IC50 (Caspase-3): 21.6 µM (active) | IC50 [3]: 4.96 µM (active)

COc1ccc(Cl)cc1N=C(S)NCc1cccnc1
AC50 (Escherichia coli): 29.7 µM (active)

CC1CN(c2ccc(NS(=O)(=O)c3ccccc3)cc2C(=O)O)CC(C)O1 (centres undefined)
EC50 (Troponin, cardiac muscle): > 71.5 µM (inactive)

COc1ccccc1-c1noc(CSc2nc(C)cc(O)n2)n1
IC50 [4]: 19.4 µM (active) | IC50 [5]: 16.6 µM (active)

O=C(O)c1ccc(CSc2n[nH]c(-c3ccco3)n2)cc1
AC50 [6]: > 20 µM (inactive) | IC50 [4]: 19.3 µM (active) | IC50 [5]: 9.95 µM (active)

O=C(O)c1ccc2cc(-c3ccccc3)[nH]c2c1
IC50 [1]: 1.53 µM (active) | EC50 [7]: 11.8 µM (inconclusive) | IC50 [2]: 1.08 µM (active) | IC50 (Caspase-3): 1.22 µM (active) | IC50 [3]: 0.938 µM (active) | EC50 (cells [8]): 2.55 µM (active) | EC50 (cells [9]): > 350 µM (not active)

CC(=O)C1=C(c2ccccc2)OC(N)=C(C#N)C1c1ccc(O)cc1 (centres undefined)
IC50 [10]: > 64 µM (inactive)

Cc1[nH]c2ccccc2c1/C=C(\C#N)C(=O)NC(C)c1ccccc1 (centres undefined)
AC50 (Cytochrome P450 2D6): 8.91 µM (inconclusive) | AC50 (Cytochrome P450 2C9): inconclusive | IC50 [4]: 2.64 µM (active) | IC50 [5]: 1.87 µM (active)

O=C(NCc1ccc(F)cc1)c1c2c(nc3ccccc13)CCC2
IC50 [11]: 5.44 µM (active) | IC50 [10]: 50 µM (inactive)

CCOC(=O)N1CCC(N(CCN(C)C)C(S)=Nc2ccc(Oc3ccccc3)cc2)CC1
AC50 (Escherichia coli): 43.6 µM (active)

CC(=O)c1ccc[n+](CC(=O)NC(C)c2ccccc2)c1 (centres undefined)
IC50 [4]: 6.17 µM (active) | IC50 [5]: 3.57 µM (active)

COc1ccc(-c2nn(-c3ccccc3)cc2/C=N/NC(N)=S)cc1OC
EC50 (Troponin, cardiac muscle): > 71.5 µM (inactive)

O=[N+]([O-])c1cccc(/C=N/Nc2ccccn2)c1
IC50 [1]: > 100 µM (inactive) | IC50 [2]: > 100 µM (inactive) | IC50 (Caspase-3): 8.82 µM (active) | IC50 [3]: 7.65 µM (active)

Nc1nnnn1CC(=O)N/N=C/c1ccc(-c2cccc(Cl)c2)o1
AC50 (Escherichia coli): 21.6 µM (active)
